This passage reports TGI results from PubChem BioAssay (NCI).

Common to all, as to assay: NCI anticancer screen, dose series, 48 h
Assay [1] relates to OVCAR-5 ovarian.
The subject of assay [2] is MDA-N.
Assay [3] has as its system LXFL 529 NSCLC.
Assay [4] deals with SNB-78 CNS.
Assay [5] relates to XF 498 CNS.
Assay [6] deals with M19-MEL melanoma.
Assay [7] deals with KM20L2 colon.
Assay [8] relates to DMS 273 small cell lung.
The test system of assay [9] is DMS 114 small cell lung.

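Protocol summary: plate cells (96-well), add compound at 5 concentrations, incubate 48 h, interpolate endpoints linearly. TGI denotes the concentration required for complete inhibition of growth.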 Bounds are passed on as bounds.

With `O=C1/C(=C/c2cccc([N+](=O)[O-])c2)Cc2ccccc21`, the TGI in [1] and in assay [2] was above 100 µM in each case.

Turning to `Clc1ccc2c(c1)CC1C[N+]3=C(CCCCC3)C1=C2` (centres undefined), the TGI in assay [1] and in assay [2] was above 100 µM throughout.

Take `CC(C)(Cl)C(Cl)CC/C(CBr)=C(\Cl)CBr` (centres undefined): the TGI in assay [1] worked out at 5.19 µM; in assay [2], 3.65 µM.

As to `CCCc1cn2c(/C=N/N=C(N)N)c(-c3ccc([N+](=O)[O-])cc3)nc2s1`, the TGI in assay [1] was determined as 3.14 µM.

`CC(=O)OC1CC2C(=O)CC1(C)C2(C)C` (centres undefined): the TGI in [1] and in assay [2] was above 100 µM throughout.

In the case of `CC(C)NC(=O)OCc1c(COC(=O)NC(C)C)c(-c2cc[n+](COC(=O)Cc3ccccc3)cc2)n2c1CCC2`, the TGI in assay [1] and in assay [2] was above 100 µM throughout.

As for `Cc1ccc(C(CCO)CCO)nc1`, the TGI in assay [1] and in [2] was above 100 µM throughout.

Consider `C=C1C(=O)O[C@H]2C1C[C@H](O)/C(C)=C/CC[C@@]1(C)O[C@H]21` (some centres undefined), for which the values for the TGI in assay [1] and in [2] were 33.9 µM and 30.3 µM, respectively.

Regarding `CC(C)(C)C1CCC2c3c([nH]c4ccccc34)C3C(=O)N(c4cc(Cl)ccc4Cl)C(=O)C3C2C1` (centres undefined), the TGI in [1] and in [2] was above 100 µM throughout.

With `c1cc2cc(Cc3ccc4[nH]ccc4c3)ccc2[nH]1`, the TGI in [1] came to 39.7 µM; in assay [2] it was 26.5 µM.

Consider `O=C(NCCCN1CCN(CCCNC(=O)c2cc(-c3ccccc3)nc3ccccc23)CC1)c1cc(-c2ccccc2)nc2ccccc12`, for which the TGI in [1] is above 78.2 µM; in [2], 20.4 µM.

As for `CC(=O)c1ccc(Nc2nc3ccccc3c3occc23)cc1`, the TGI is above 100 µM in [1] and 47.7 µM in assay [2].

`O=C(O)c1ccccc1/C=N\N(CCO)C1=NCCN1`: the TGI in assay [1] and in assay [2] was above 100 µM in each case.

In the case of `C[n+]1ccc2/c(=C\C#N)c3ccccc3n21`, the TGI in [1] and in assay [2] was above 100 µM throughout.

Consider `Oc1c(Cl)c(Cl)c(O)c(-c2cnc(-c3ncc(-c4c(O)c(Cl)c(Cl)c(O)c4Cl)s3)s2)c1Cl`, for which, in assay [1], the TGI was found to be 36.4 µM.

With `Cc1c2c(n3c(nc4ccccc43)c1C#N)NCC2`, the TGI in assay [1] and in assay [2] was above 10 µM throughout.

As to `COC1=C(OC)C(=O)C(C/C=C/c2c(Cl)nc3sccn23)=C(C)C1=O`, the TGI came out at 38 µM in [1] and 19.8 µM in assay [2].

As to `CCOC(OCC)[C@@H]1C[C@@H]2N(O[C@H](OC3CCCC3(c3ccccc3)c3ccccc3)[C@H](OC(C)=O)[C@@]2(CC)Cc2ccc(OC)c(OC)c2)O1` (some centres undefined), the TGI in assay [1] and in [2] was above 100 µM in each case.

For `Cc1nc2c(n1Cc1ccc(F)cc1)C(=O)c1ccccc1C2=O`, the TGI is above 100 µM in [3]; above 100 µM in assay [4]; above 100 µM in assay [5]; 13.5 µM in [6]; above 100 µM in assay [7]; above 100 µM in assay [8].

On to `CCOC(=O)CN1C(=O)c2c(NC(=O)C(=O)O)cccc2S1(=O)=O`, for which the TGI in assay [1] and in [2] was above 100 µM throughout.

Regarding `CCOC(=O)c1cc(C2CCN(Cc3ccccc3)C2=O)c(C(=O)/C=C(/C)N)[nH]1` (centres undefined), the TGI in assay [1] and in assay [2] was above 100 µM each time.

As to `CC(C)(C)c1cc(OCc2n[nH]c(=S)n2N)c(Cl)cc1OCc1n[nH]c(=S)n1N`, the TGI in assay [1] and in assay [2] was above 100 µM each time.

`Cc1nnc(N)nc1C/C=C/C(C)Sc1ccc(Cl)cc1` (centres undefined): the TGI in [1] is 36.9 µM; in assay [2] it was above 100 µM.

`O=c1[nH]nc(-c2ccccc2)n1-n1cccc1`: the TGI in [1] and in [2] was above 100 µM each time.

In the case of `CC(c1ccccc1)n1c2ccccc2c2c(N)ncnc21` (centres undefined), the TGI in assay [1] turned out to be 37.9 µM; in [2], 51.9 µM.

In assay [1], `Cc1cc2nc3c(C#N)c4c(c(Cl)n3c2cc1C)CCC4` came in with a TGI of 77.8 µM.

On to `CC(C)(CN1CCCCC1)C(=O)CC(SCCS(=O)(=O)O)c1ccccc1` (centres undefined), for which the TGI stood at 27 µM in assay [1] and 34.6 µM in [2].

For the molecule `CCCCCCC(O)C(=O)OC1C2C(CC1(C)C)C(O)C13OC1C(O)C1(CO1)[C@@]23C` (some centres undefined), the TGI in assay [1] and in [2] was above 100 µM throughout.

On to `CCOC(=O)Cc1ccc(Nc2nc3cc(F)c(F)cc3nc2C(=O)OCC)cc1`, for which the TGI in [1] and in assay [2] was above 100 µM in each case.

Take `N#C/C(=C\c1ccccc1F)C(=O)c1ccccc1`: the TGI in assay [9], in assay [1], in assay [3], in assay [4], in [5] and in assay [6] was above 100 µM in each case. Moreover, the TGI in [7] and in assay [8] was above 100 µM each time.

Regarding `COc1c(-c2ccc(F)cc2)oc2c(CC(=O)O)cccc2c1=O`, the TGI in assay [1] and in assay [2] was above 100 µM each time.

As to `CCOC(=O)C(CCSC)(CCSC)C(=O)OCC`, the TGI in [1] and in assay [2] was above 100 µM in each case.

`O=C(Cn1c2ccc(Br)cc2c2nc3ccccc3nc21)N1CCOCC1`: the TGI in assay [1] and in assay [2] was above 100 µM in each case.

On to `CSc1c(S(C)=O)c2ccccc2n1C` (centres undefined), for which the TGI in [1] and in [2] was above 100 µM throughout.

`CC(=O)O[C@H]1C(=O)[C@@]2(C)[C@H]([C@H](OC(=O)c3ccccc3)[C@]3(O)C[C@H](OC(=O)[C@H](O)[C@@H](NC(=O)OC(C)(C)C)c4ccco4)C(C)=C1C3(C)C)[C@]1(OC(C)=O)CO[C@@H]1C[C@@H]2O`: the TGI in assay [1] is 9.96 µM; in assay [2], 0.0325 µM.

`[O-][N+]1=C(c2ccccc2)/C(=C2/C(c3ccccc3)=[N+]([O-])c3ccccc32)Cc2ccccc21`: the TGI in [1] was above 100 µM; in assay [2] it was 31.7 µM.
